Here are results for 1 compound from article PMC5823406, “Vehicle development, pharmacokinetics and toxicity of the anti-invasive agent 4-fluoro-3’,4’,5’-trimethoxychalcone in rodents” (PLoS ONE, 2018).

A short description of one data set: Plasma stability. Format: in vitro ADME. As to conditions: plasma (rat, Sprague-Dawley). The text has this:
(§1) Table 3 In vitro physicochemical, stability and metabolism data. | column: Value

Another data set deals with Caco-2. Description: Caco-2 permeability and recovery. In kind it is in vitro ADME. Conditions: Caco-2, pH 7.4/7.4; 10 μM.
Text: as §1
A general note: Caco-2 cells form a polarised layer with tight junctions and transporters.

The structures appear in SMILES notation. A value given as a limit tells only on which side of the number the result lay.

A word on the half-life: it is the time needed for the level to fall by half in the phase considered. With `COc1cc(C(=O)/C=C/c2ccc(F)cc2)cc(OC)c1OC` [C16, 4-fluoro-3’,4’,5’-trimethoxychalcone], the half-life at 1 μM in the data set “Plasma stability” is over 120 min. Also, in the data set with Caco-2, the “Permeability A-B” value was 10.4 10^−6 cm/s, the “Permeability A-B: recovery” value came out at 17%, the “Permeability B-A” value is 4.9 10^−6 cm/s and the “Permeability B-A: recovery” value worked out at 66%.
